Tested on: Pigmented human epidermal equivalents (MelanoDerm™)
Test: In vitro test for depigmentation activity in pigmented human epidermal equivalents (MelanoDerm, MEL-300-B)
Assay type: cell-based
Conditions: applied topically daily for 8 days, measured on day 9
Text: Pigmented human epidermal equivalents (MelanoDerm™) from MatTek Corporation (Ashland, Mass.) were used to assess the depigmentation activity of test materials. MelanoDerm™ consists of normal, human-derived epidermal keratinocytes (NHEK) and melanocytes (NHM) which have been cultured to form a multilayered, highly differentiated model of the human epidermis. Specifically, MEL-300-B tissues, each 9 mm in diameter were used in the following tests.
The Example 2 ascorbic acid powder mixture was compared with 1% Ascorbic Acid 2-Glucoside (Hayashibara Co Ltd, Japan) in a solvent of 70% ethyl alcohol and 30% butylene glycol as a benchmark. Test materials were applied topically to the MelanoDerm™ skin model daily and the experiment lasted for 8 days. Measurement was taken on day 9. The macroscopic and microscopic visual tissue darkening end points were measured by taking pictures with a digital camera. The Degree of Lightness for each tissue (L-Value) was measured using a spectrophotometer (Konica Minolta CM-2600d). The ΔL (degree of lightness as compared to control) for each test sample is calculated as per following formula: […]
Degree of skin lightness:
ΔL*=L*-value of treated sample−L*-value of control sample.
ΔMexa Index=Melanin Index of control−Melanin Index of treated sample.

## O=C1O[C@H]([C@@H](O)CO)C(O)=C1O[C@H]1O[C@H](CO)[C@@H](O)[C@H](O)[C@H]1O [1% ascorbic acid 2-glucoside in vehicle, Ascorbic Acid 2-Glucoside]
  Δ Mexa Index (Melanin Index of control minus treated sample): 145.67
spectrophotometer
  Δ L-value (degree of skin lightness, treated minus control): 2.34

— patent publication US20150359742A1, “COMPOSITIONS AND METHODS FOR ENHANCING THE TOPICAL APPLICATION OF A BENEFIT AGENT INCLUDING POWDER TO LIQUID PARTICLES AND A SECOND POWDER” (Johnson & Johnson Consumer Inc., priority 2014, published 2015)
